# According to patent publication US4357324A, “Prodrug derivatives of 9β-D-arabinofuranosyl-2-fluoroadenine” (The United States of America as represented by the …, priority 1981, dated 1982):
# Key:
# [1] = in words; second component of the two-drug combination; cited from earlier work
# L1210 Leukemia = assay: Activity against L1210 leukemia, 10^5 L1210 cell IP (Table IV); type: in vivo, mice; settings: for Lifespan: untreated control 8; for lifespan and cures of mice implanted with leukemia L1210 cells: FIGS. 1 and 3
# Method: (§1) These higher levels of the active agent that last for longer periods of time allow effective treatment with these drugs given once a day for nine days (see FIGS. 1, 2 and 3).
# (§2) It has been noted that the antitumor activity of 9-β-D-arabinofuranosyl adenine (ara-A) is enhanced by the incorporation of a fluorine atom at the 2-carbon. […] To overcome this difficulty two water-soluble derivatives, the 5'-formate and the 5'-phosphate, were prepared.
# L1210 cells = assay: Nanomoles of triphosphate per gm L1210 cells after treatment (Table I); type: in vivo, mice; settings: for levels of F-ara-A triphosphate in leukemic cells versus F-ara-A itself: mouse, in vivo
# Method: as §1, §2
# [2] = Conversion to the parent drug in vivo (statement); settings: in words
# [3] = Water solubility (statement); type: physicochemical; settings: in words
# L1210/0 Leukemia = assay: Activity against L1210/0 leukemia, 10^5 IP (Tables II and III); type: in vivo, mice
# Method: as §1
# Treatment: IP; QD 1-9 Days*
# *2'dCF Given 30 Minutes Before araA
# as §2
# [4] = Table IV, 375 mg/kg/day, q3h, days 1,5,9
# [5] = Table II, 150 mg/kg/dose, IP, QD 1-9 days
# [6] = mice implanted with leukemia L1210 cells
# [7] = Table IV, 219 mg/kg/day, qd 1-9
smiles,measurement,setting,value
OC[C@H]1O[C@@H](n2cnc3c2NC=NC[C@H]3O)C[C@@H]1O [2'-dCF],toxicity,[1],clear but not completely defined toxicity
"Nc1ncnc2c1ncn2[C@@H]1O[C@H](COP(=O)(O)O)[C@@H](O)[C@@H]1O [Ara-AMP, 9-β-D-arabinofuranosyl adenine 5'-phosphate, reference compound]",% ILS,L1210 Leukemia; [4],62%
same,Lifespan,L1210 Leukemia; [4],13 days
"Nc1nc(F)nc2c1ncn2[C@@H]1O[C@H](COC=O)[C@@H](O)[C@@H]1O [F-ara-A5'-formate, 9-(5-O-formyl-β-D-arabinofuranosyl)-2-fluoroadenine]",lifespan and cures of mice implanted with leukemia L1210 cells,L1210 Leukemia,good increases in lifespan and some cures
same,levels of F-ara-A triphosphate in leukemic cells versus F-ara-A itself,L1210 cells,higher levels
same,conversion to the parent drug in vivo,[2],converted to the parent drug in vivo
same,solubility,[3],water-soluble
same,% ILS,L1210/0 Leukemia; [5],177%
same,Cures,L1210/0 Leukemia; [5],3/10
same,Median Lifespan,"L1210/0 Leukemia; Table II, 150 mg/kg/dose, IP, QD 1-9 days, untreated control 9",25 days
same,Cures,L1210/0 Leukemia; [6],three
same,increase in lifespan,L1210/0 Leukemia; [6],177%
"Nc1nc(F)nc2c1ncn2[C@@H]1O[C@H](CO)[C@@H](O)[C@@H]1O [F-ara-A, 9-β-D-arabinofuranosyl-2-fluoroadenine, reference compound]",levels of the triphosphate in L1210 versus ara-A+2'dCF,L1210 cells; near equimolar doses,higher levels
same,solubility,[3],very insoluble
"Nc1nc(F)nc2c1ncn2[C@@H]1O[C@H](COP(=O)(O)O)[C@@H](O)[C@@H]1O [F-ara-AMP, 9-β-D-arabinofuranosyl-2-fluoroadenine 5'-phosphate]",lifespan and cures of mice implanted with leukemia L1210 cells,L1210 Leukemia,good increases in lifespan and some cures
same,% ILS,L1210 Leukemia; [7],125%
same,Cures,L1210 Leukemia; [7],3/10
same,Lifespan,L1210 Leukemia; [7],18 days
same,levels of F-ara-A triphosphate in leukemic cells versus F-ara-A itself,L1210 cells,higher levels
same,conversion to the parent drug in vivo,[2],converted to the parent drug in vivo
same,solubility,[3],water-soluble
"Nc1ncnc2c1ncn2[C@@H]1O[C@H](CO)[C@@H](O)[C@@H]1O [ara-A, 9-β-D-arabinofuranosyl adenine, reference compound]",effectiveness,"L1210 Leukemia; optimal schedule, every 3 hours for 24 hours",not very effective
